Laboratory results: paper PMC9297976 (Journal of Applied Toxicology, 2021)

What was measured:
medaka ARβ (mArβ) [1] = target: T1, medaka ARβ (mArβ) (Oryzias latipes, UniProt D1MV73); assay: Medaka ARβ reporter gene assay, antagonist assay; type: cell-based, Japanese medaka (Oryzias latipes)
T1 sequence (D1MV73 1-744): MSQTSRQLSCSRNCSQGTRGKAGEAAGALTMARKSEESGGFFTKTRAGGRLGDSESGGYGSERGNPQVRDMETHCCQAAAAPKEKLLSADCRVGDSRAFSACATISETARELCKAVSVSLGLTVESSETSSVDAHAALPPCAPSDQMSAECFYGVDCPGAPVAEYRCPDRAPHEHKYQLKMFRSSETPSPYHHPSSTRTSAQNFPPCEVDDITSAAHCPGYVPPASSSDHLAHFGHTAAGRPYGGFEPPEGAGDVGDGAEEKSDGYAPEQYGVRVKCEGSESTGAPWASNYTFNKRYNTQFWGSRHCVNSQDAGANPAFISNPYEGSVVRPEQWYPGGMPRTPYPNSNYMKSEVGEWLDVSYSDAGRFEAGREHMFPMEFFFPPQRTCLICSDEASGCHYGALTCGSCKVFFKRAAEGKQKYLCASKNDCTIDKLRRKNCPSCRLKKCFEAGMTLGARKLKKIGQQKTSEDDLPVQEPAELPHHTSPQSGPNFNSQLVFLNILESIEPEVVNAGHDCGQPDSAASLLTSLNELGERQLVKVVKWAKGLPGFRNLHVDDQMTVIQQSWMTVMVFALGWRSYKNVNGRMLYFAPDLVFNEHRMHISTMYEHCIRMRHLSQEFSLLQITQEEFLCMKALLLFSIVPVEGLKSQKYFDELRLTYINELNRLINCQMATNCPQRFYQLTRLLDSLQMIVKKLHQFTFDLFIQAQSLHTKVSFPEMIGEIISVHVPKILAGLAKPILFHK

[2] = system: Japanese medaka (Oryzias latipes); assay: Fish Short‐Term Reproduction Assay; type: in vivo; details: for GSI Female / GSI Male / HSI Female / HSI Male / Length Female / Length Male / Weight Female / Weight Male: completion of exposure
medaka Esr1 (mEsr1) [3] = target: T2, medaka Esr1 (mEsr1) (Oryzias latipes, UniProt P50241); assay: cell-based; parameters: species or system Japanese medaka (Oryzias latipes); details: mode of action in which EC50 or PC10 was obtained in RGA
T2 sequence (P50241 1-620): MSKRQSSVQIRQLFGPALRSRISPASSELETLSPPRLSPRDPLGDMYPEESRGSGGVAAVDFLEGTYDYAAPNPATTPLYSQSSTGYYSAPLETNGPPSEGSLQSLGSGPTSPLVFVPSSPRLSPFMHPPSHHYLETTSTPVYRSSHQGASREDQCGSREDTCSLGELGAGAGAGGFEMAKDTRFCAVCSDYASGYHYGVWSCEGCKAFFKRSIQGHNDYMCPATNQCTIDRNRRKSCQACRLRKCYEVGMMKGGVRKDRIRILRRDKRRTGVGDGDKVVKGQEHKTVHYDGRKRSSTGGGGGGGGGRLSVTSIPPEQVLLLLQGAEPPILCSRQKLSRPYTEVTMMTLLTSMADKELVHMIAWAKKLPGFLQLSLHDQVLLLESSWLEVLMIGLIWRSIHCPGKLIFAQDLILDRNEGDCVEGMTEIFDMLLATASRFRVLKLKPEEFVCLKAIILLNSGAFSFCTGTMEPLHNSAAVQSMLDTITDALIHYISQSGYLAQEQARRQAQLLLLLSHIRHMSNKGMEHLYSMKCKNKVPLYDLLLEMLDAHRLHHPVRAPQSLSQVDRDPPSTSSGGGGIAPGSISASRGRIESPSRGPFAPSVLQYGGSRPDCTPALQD

medaka Esr1 (mEsr1) [4] = target: T2, medaka Esr1 (mEsr1); assay: Medaka Esr1 reporter gene assay, antagonist assay; type: cell-based, Japanese medaka (Oryzias latipes); details: E2 spiked at 1.0 nM (B); MAC = 1.0 × 10^−5 M
Japanese medaka = details: 12 h after fertilization to 101 days of age; ref Seki, Yokota, Matsubara, et al. (2003); cited from earlier work
medaka ARβ (mArβ) [5] = target: T1, medaka ARβ (mArβ); assay: Medaka ARβ reporter gene assay, agonist assay; type: cell-based, Japanese medaka (Oryzias latipes); details: MAC = 1.0 × 10^−4 M
[6] = 940 μg/L measured, 21 d, sig. ↓ vs control
[7] = measured concentration 58.4 μg/L
[8] = measured concentration 227 μg/L
[9] = measured concentration 940 μg/L

CCC(C)(C)c1ccc(O)cc1 [Chemical 4tPP, 4‐tert‐Pentylphenol]
Antagonistic activity IC30 (medaka ARβ (mArβ) [1]; 11‐KT spiked at 50 nM (D)): IC30 = 1.7 × 10^−5 M^(D)
In vitro positive: aAr (medaka ARβ (mArβ) [1]; mode of action in which IC50 or IC30 was obtained in RGA): aAr
Antagonistic activity on mArβ (in words) (medaka ARβ (mArβ) [1]; transcriptional activity on mArβ by 11KT): inhibitory potency
Fertility rate ([2]; 58.4 μg/L measured, 21 d): 94 ± 1.7%
Hepatic VTG, female ([2]; 58.4 μg/L measured, 21 d): 2,930 ± 737 ng/mg‐liver
Mortality ([2]; 58.4 μg/L measured, 21 d): 4.2%
Mortality, number of dead fish ([2]; 58.4 μg/L measured, 21 d): 1
Number of fertilized eggs (per female per day) ([2]; 58.4 μg/L measured, 21 d): 20 ± 3.2
Number of total eggs (per female per day) ([2]; 58.4 μg/L measured, 21 d): 21 ± 3.1
SSC female (joint plates with papillary processes) ([2]; 58.4 μg/L measured, 21 d): 0 ± 0
Hepatic VTG, male ([2]; 58.4 μg/L measured, 21 d, sig. ↑ vs control): 970 ± 858 ng/mg‐liver
Fertility rate ([2]; 227 μg/L measured, 21 d): 94 ± 2.5%
Hepatic VTG, female ([2]; 227 μg/L measured, 21 d): 3,070 ± 686 ng/mg‐liver
Mortality ([2]; 227 μg/L measured, 21 d): 4.2%
Mortality, number of dead fish ([2]; 227 μg/L measured, 21 d): 1
Number of fertilized eggs (per female per day) ([2]; 227 μg/L measured, 21 d): 19 ± 2.9
Number of total eggs (per female per day) ([2]; 227 μg/L measured, 21 d): 20 ± 2.7
SSC female (joint plates with papillary processes) ([2]; 227 μg/L measured, 21 d): 0 ± 0
Hepatic VTG, male ([2]; 227 μg/L measured, 21 d, sig. ↑ vs control): 3,700 ± 2,300 ng/mg‐liver
Fertility rate ([2]; 940 μg/L measured, 21 d): 81 ± 8.9%
Mortality ([2]; 940 μg/L measured, 21 d): 13%
Mortality, number of dead fish ([2]; 940 μg/L measured, 21 d): 3
SSC female (joint plates with papillary processes) ([2]; 940 μg/L measured, 21 d): 0 ± 0
Hepatic VTG, female ([2]; 940 μg/L measured, 21 d, sig. ↑ vs control): 8,100 ± 3,340 ng/mg‐liver
Number of fertilized eggs (per female per day) [2, 6]: 13 ± 3.5
Number of total eggs (per female per day) [2, 6]: 16 ± 4.7
Change of hepatic VTG levels in females (in words) ([2]; 21 d): significant increase
Fecundity, number of total eggs (in words) ([2]; 21 d): statistically significant decrease
LOEC, elevated hepatic VTG in males ([2]; 21 d): 58.4 µg/L
LOECREPRO ([2]; LOEC on reproduction (fecundity and/or fertility)): 940 µg/L
minimal effective concentration ([2]; Oryzias latipes, 504 h, read-out: LOECmVTG): 0.0584 µg/mL
Fertility rate (in words) ([2]; chemicals with significant decrease of number of total eggs): no significant effect
LOECREPRO (reduction in fecundity or fertility) ([2]; concentrations without overt toxicity): 940 µg/L
LOECTOX ([2]; lowest observed effect concentration on mortality): ND (>940) μg/L
GSI Female [2, 7]: 10.0 ± 0.6%
GSI Male [2, 7]: 0.89 ± 0.11%
HSI Female [2, 7]: 4.3 ± 0.50%
HSI Male [2, 7]: 2.3 ± 0.18%
Length Female [2, 7]: 36.0 ± 0.5 mm
Length Male [2, 7]: 37.8 ± 1.2 mm
Weight Female [2, 7]: 558 ± 48 mg
Weight Male [2, 7]: 590 ± 39 mg
GSI Female [2, 8]: 9.9 ± 1.0%
GSI Male [2, 8]: 0.73 ± 0.16%
HSI Female [2, 8]: 4.2 ± 0.44%
HSI Male [2, 8]: 2.2 ± 0.33%
Length Female [2, 8]: 35.5 ± 0.7 mm
Length Male [2, 8]: 36.2 ± 0.6 mm
Weight Female [2, 8]: 523 ± 48 mg
Weight Male [2, 8]: 546 ± 23 mg
GSI Female [2, 9]: 8.9 ± 1.2%
GSI Male [2, 9]: 0.73 ± 0.13%
HSI Female [2, 9]: 3.9 ± 0.73%
HSI Male [2, 9]: 3.6 ± 0.50%
Length Female [2, 9]: 36.1 ± 1.6 mm
Length Male [2, 9]: 35.6 ± 0.8 mm
Weight Female [2, 9]: 588 ± 130 mg
Weight Male [2, 9]: 509 ± 47 mg
In vitro positive: Esr (medaka Esr1 (mEsr1) [3]): Esr
Antagonistic activity (medaka Esr1 (mEsr1) [4]): NE (MAC = 1.0 × 10^−5 M)^(B)
LOEC on abnormal sexual differentiation (Japanese medaka): 224 µg/L
LOEC on hepatic VTG induction (Japanese medaka): ≤ 51.1 µg/L
LOEC on reproductive impairment (Japanese medaka): 224 µg/L
Agonistic activity (medaka ARβ (mArβ) [5]): NE (MAC = 1.0 × 10^−4 M)
